According to US9328374B2, “Selective culture medium and method for detecting carbapenem-resistant bacteria in a test sample” (Institut National de la Sante et de la Recherche Medicale …, priority 2011, dated 2016):
Where “and” joins values, the source holds several entries; their conditions need not be identical. Equal entries are not always repeated.

How the values were obtained:
Assay in all cases: MIC of imipenem, ertapenem and meropenem
K. pneumoniae = format: cell-based, Klebsiella pneumoniae
P. mirabilis = format: cell-based
C. koseri = format: cell-based
S. typhimurium = format: cell-based

## C[C@@H](O)[C@H]1C(=O)N2C(C(=O)O)=C(S[C@@H]3CN[C@H](C(=O)N(C)C)C3)[C@H](C)[C@H]12 [MEM, meropenem]
K. pneumoniae; K. pneumoniae LIB, OXA-48
  MIC: 16 µg/mL
K. pneumoniae; K. pneumoniae LIE, KPC-2 + TEM-2 + OXA-9
  MIC: >32 µg/mL
K. pneumoniae; K. pneumoniae LOU, OXA-48
  MIC: 0.5 µg/mL
K. pneumoniae; K. pneumoniae MAD (VIM-1 + CTX-M-3)
  MIC: 1 µg/mL
K. pneumoniae; K. pneumoniae MAD, VIM-1+ CTX-M-3
  MIC: 1 µg/mL
K. pneumoniae; K. pneumoniae MEK (CTX-M-15 + SHV-11)
  MIC: 6 µg/mL
K. pneumoniae; K. pneumoniae MEK, CTX-M-15 + SHV-11, non-carbapenemase producer, porin deficiency
  MIC: 6 µg/mL
K. pneumoniae; K. pneumoniae MUS (KPC-2 + TEM-1 + SHV-11 + SHV-12)
  MIC: 1.5 µg/mL
K. pneumoniae; K. pneumoniae MUS, KPC-2 + TEM-1 + SHV-11 + SHV-12
  MIC: 1.5 µg/mL
K. pneumoniae; K. pneumoniae OM2 (NDM-1 + TEM-1 + CTX-M-3 + SHV-11 + OXA-1)
  MIC: 1.5 µg/mL
K. pneumoniae; K. pneumoniae OM2, NDM-1 + TEM-1 + CTX-M-3 + SHV-11 + OXA-1
  MIC: 1.5 µg/mL
K. pneumoniae; K. pneumoniae OM4, NDM-1 + TEM-1 + CTX-M-15 + SHV-12 + OXA-9
  MIC: 16 µg/mL
K. pneumoniae; K. pneumoniae OM8, NDM-1 + TEM-1 + CTX-M-15 + SHV-11 + OXA-1
  MIC: 4 µg/mL
K. pneumoniae; K. pneumoniae OM11, OXA-48 + TEM-1 + CTX-M-14
  MIC: 0.25 µg/mL
K. pneumoniae; K. pneumoniae OM13, NDM-1 + TEM-1 + CTX-M-15 + SHV-28 + OXA-1 + OXA-9
  MIC: 2 µg/mL
K. pneumoniae; K. pneumoniae OM14, OXA-48 + TEM-1
  MIC: 0.38 µg/mL
K. pneumoniae; K. pneumoniae OM15, NDM-1 + CTX-M-15 + SHV-130 + OXA-1
  MIC: 3 µg/mL
K. pneumoniae; K. pneumoniae OM16, NDM-1 + CTX-M-15 + OXA-1 + OXA-181
  MIC: 16 µg/mL
K. pneumoniae; K. pneumoniae OM19, NDM-1 + CTX-M-15 + SHV-12 + OXA-1
  MIC: 8 µg/mL
K. pneumoniae; K. pneumoniae OMA419 (NDM-1 + OXA-1)
  MIC: 2 µg/mL
K. pneumoniae; K. pneumoniae OMA419, NDM-1 + OXA-1
  MIC: 2 µg/mL
K. pneumoniae; K. pneumoniae OMA601, NDM-1 + CTX-M-15 + OXA-1 + OXA-9
  MIC: >32 µg/mL
K. pneumoniae; K. pneumoniae OMA (OXA-181 + CTX-M-15 + OXA-1)
  MIC: 0.5 µg/mL
K. pneumoniae; K. pneumoniae OMA, OXA-181 + CTXM-15 + OXA-1
  MIC: 0.5 µg/mL
K. pneumoniae; K. pneumoniae RAM (OXA-48)
  MIC: 1 µg/mL
K. pneumoniae; K. pneumoniae RAM, OXA-48
  MIC: 1 µg/mL
K. pneumoniae; K. pneumoniae ROB (OXA-48 + CTX-M-15 + TEM-1)
  MIC: 0.5 µg/mL
K. pneumoniae; K. pneumoniae ROU (OXA-48 + CTX-M-15)
  MIC: 0.25 µg/mL
K. pneumoniae; K. pneumoniae ROU, OXA-48 + CTX-M-15
  MIC: 0.25 µg/mL
K. pneumoniae; K. pneumoniae SCO (OXA-48)
  MIC: 0.25 µg/mL
K. pneumoniae; K. pneumoniae SCO, OXA-48
  MIC: 0.25 µg/mL
K. pneumoniae; K. pneumoniae SHI (CTX-M-15 + TEM-1 + SHV-1)
  MIC: 1 µg/mL
K. pneumoniae; K. pneumoniae SHI, CTX-M-15 + TEM-1 + SHV-11, non-carbapenemase producer, porin deficiency
  MIC: 1 µg/mL
K. pneumoniae; K. pneumoniae SHM (CTX-M-15 + TEM-1 + SHV-11)
  MIC: 1 µg/mL
K. pneumoniae; K. pneumoniae SHM, CTX-M-15 + TEM-1 + SHV-11, non-carbapenemase producer, porin deficiency
  MIC: 3 µg/mL
K. pneumoniae; K. pneumoniae SIC (OXA-48 + CTX-M-15 + SHV-28)
  MIC: 0.25 µg/mL
K. pneumoniae; K. pneumoniae SIC, OXA-48 + CTX-M-15 + SHV-28
  MIC: 0.25 µg/mL
K. pneumoniae; K. pneumoniae SIM (CTX-M-15 + TEM-1 + SHV-1)
  MIC: 6 µg/mL
K. pneumoniae; K. pneumoniae SIM, CTX-M-15 + TEM-1 + SHV-1, non-carbapenemase producer, porin deficiency
  MIC: 6 µg/mL
K. pneumoniae; K. pneumoniae TAW, IMP-8 + SHV-12
  MIC: 0.5 µg/mL
K. pneumoniae; K. pneumoniae TIK, OXA-48
  MIC: 0.38 µg/mL
K. pneumoniae; K. pneumoniae TUR (IMP-1)
  MIC: 8 µg/mL
K. pneumoniae; K. pneumoniae TUR, IMP-1
  MIC: 8 µg/mL
K. pneumoniae; K. pneumoniae TWA, IMP-8
  MIC: 0.5 µg/mL
K. pneumoniae; K. pneumoniae UK (NDM-1 + CTX-M-15 + CMY-4 + OXA-1)
  MIC: >32 µg/mL
K. pneumoniae; K. pneumoniae UK, NDM-1 + CTX-M-15 + CMY-4 + OXA-1
  MIC: >32 µg/mL
K. pneumoniae; K. pneumoniae VER, OXA-48 + TEM-1 + CTX-M-15 + SHV-11
  MIC: 0.38 µg/mL
K. pneumoniae; K. pneumoniae VSG (OXA-48 + TEM-1 + CTX-M-15 + OXA-1)
  MIC: 0.75 µg/mL
K. pneumoniae; K. pneumoniae VSG, OXA-48 + TEM-1 + CTX-M-15 + OXA-1
  MIC: 0.75 µg/mL
K. pneumoniae; K. pneumoniae YC, KPC-2 + TEM-1 + SHV-11 + SHV-12 + OXA-9
  MIC: 2 µg/mL
K. pneumoniae; strain K. pneumoniae 7725, SHV-1, non-carbapenemase producer
  MIC: 0.032 µg/mL
K. pneumoniae; strain K. pneumoniae 648236, SHV-2a, non-carbapenemase producer
  MIC: 0.38 µg/mL
K. pneumoniae; strain K. pneumoniae ALE, CTX-M-15 + SHV-1, non-carbapenemase producer
  MIC: 4 µg/mL
K. pneumoniae; strain K. pneumoniae AMS, OXA-48 + TEM-1 + CTX-M-15 + OXA-1
  MIC: 0.38 µg/mL
K. pneumoniae; strain K. pneumoniae BAJ, OXA-48 + TEM-1 + CTX-M-15 + SHV-28
  MIC: 0.38 µg/mL
K. pneumoniae; strain K. pneumoniae BED, CTX-M-15 + TEM-1 + SHV-11, non-carbapenemase producer
  MIC: 4 µg/mL
K. pneumoniae; strain K. pneumoniae BEL, OXA-48
  MIC: 1 µg/mL
K. pneumoniae; strain K. pneumoniae BEN, OXA-48 + TEM-1 + CTX-M-15 + SHV-28
  MIC: 0.25 µg/mL
K. pneumoniae; strain K. pneumoniae BER, SHV-28 + TEM-1, non-carbapenemase producer
  MIC: 1 µg/mL
K. pneumoniae; strain K. pneumoniae ELK, OXA-48 + TEM-1 + CTX-M-15 + SHV-11
  MIC: 0.38 µg/mL
K. pneumoniae; strain K. pneumoniae HOL, OXA-181 + CTX-M-15
  MIC: 1 µg/mL
K. pneumoniae; strain K. pneumoniae MUS, KPC-2 + TEM-1 + SHV-11 + SHV-12
  MIC: 1.5 µg/mL
K. pneumoniae; strain K. pneumoniae OM2, NDM-1 + TEM-1 + CTX-M-3 + SHV-11 + OXA-1
  MIC: 1.5 µg/mL
K. pneumoniae; strain K. pneumoniae OMA419, NDM-1 + OXA-1
  MIC: 2 µg/mL
K. pneumoniae; strain K. pneumoniae OMA, OXA-181 + CTXM-15 + OXA-1
  MIC: 0.5 µg/mL
K. pneumoniae; strain K. pneumoniae ROU, OXA-48 + CTX-M-15
  MIC: 0.25 µg/mL
K. pneumoniae; strain K. pneumoniae SCO, OXA-48
  MIC: 0.25 µg/mL
K. pneumoniae; strain K. pneumoniae SIC, OXA-48 + CTX-M-15 + SHV-28
  MIC: 0.25 µg/mL
K. pneumoniae; strain K. pneumoniae VSG, OXA-48 + TEM-1 + CTX-M-15 + OXA-1
  MIC: 0.75 µg/mL
P. mirabilis; P. mirabilis 1031 (CTX-M-14 + TEM-1 + SHV-11)
  MIC: 0.032 µg/mL
P. mirabilis; P. mirabilis 1031, CTX-M-14 + TEM-1 + SHV-11, non-carbapenemase producer
  MIC: 0.032 µg/mL
P. mirabilis; P. mirabilis PMA (ACC-1)
  MIC: 0.12 µg/mL and 0.064 µg/mL
P. mirabilis; P. mirabilis PMA, ACC-1, non-carbapenemase producer
  MIC: 0.064 µg/mL
C. koseri; C. koseri ROU, OXA-48
  MIC: 0.38 µg/mL
C. koseri; C. koseri VER (OXA-48)
  MIC: 0.38 µg/mL
C. koseri; C. koseri VER, OXA-48
  MIC: 0.38 µg/mL
C. koseri; strain C. koseri VER, OXA-48
  MIC: 0.38 µg/mL
S. typhimurium; S. typhimurium 1081 (CTX-M-1)
  MIC: 0.032 µg/mL
S. typhimurium; S. typhimurium 1081, CTX-M-1, non-carbapenemase producer
  MIC: 0.032 µg/mL
S. typhimurium; strain S. typhimurium 1081, CTX-M-1, non-carbapenemase producer
  MIC: 0.032 µg/mL
